Our source for the IC50 values is ChEMBL document CHEMBL1126956, “Synthesis and biological evaluation of cholecystokinin analogs in which the Asp-Phe-NH2 moiety has been replaced by a 3-amino-7-phenylheptanoic acid or a 3-amino-6-(phenyloxy)hexanoic acid” (J Med Chem, 1993).

As usually defined, the IC50 is the concentration needed to halve the response being measured. Read a high IC50 as weaker potency in that assay.

SMILES strings stand for the structures. Where a SMILES comes first, the peptide text is derived from it. [ ]: non-standard residue; d: D form. The star is where a group is joined. sY = N[C@@H](Cc1ccc(OS(=O)(=O)O)cc1)C(=O)O; NHPhenethyl = c1ccc(CCN*)cc1; OCH2CH2Ph = c1ccc(CCO*)cc1; Nle = CCCC[C@H](N)C(=O)O; Boc = CC(C)(C)OC(=O)*

Experiment [1] addresses T1, Gastrin/cholecystokinin type B receptor (Homo sapiens, UniProt P32239).
T1 sequence (P32239 whole entry): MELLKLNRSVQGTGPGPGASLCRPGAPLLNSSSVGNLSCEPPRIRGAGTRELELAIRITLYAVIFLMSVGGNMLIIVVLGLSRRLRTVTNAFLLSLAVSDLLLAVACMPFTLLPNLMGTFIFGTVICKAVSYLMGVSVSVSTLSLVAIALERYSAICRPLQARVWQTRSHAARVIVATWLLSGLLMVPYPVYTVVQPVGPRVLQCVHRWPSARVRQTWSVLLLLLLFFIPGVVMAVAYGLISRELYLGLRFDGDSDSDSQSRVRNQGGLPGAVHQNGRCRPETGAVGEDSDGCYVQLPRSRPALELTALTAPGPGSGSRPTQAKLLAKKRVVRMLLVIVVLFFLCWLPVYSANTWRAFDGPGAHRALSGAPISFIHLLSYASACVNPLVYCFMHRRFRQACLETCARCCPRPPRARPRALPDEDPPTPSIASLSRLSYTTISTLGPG
In words: Inhibition of [125I]BH-CCK- binding to cholecystokinin type B receptor from jurkat Tcells. It counts as cell-based.

Experiment [2] has as its target Cholecystokinin receptor type A (Rattus norvegicus) (UniProt P30551). The experiment can be described thus: Inhibition of [125I]BH-CCK- binding to peripheral cholecystokinin type A receptor from rat pancreatic acini.
For experiment [3], the target named is Gastrin/cholecystokinin type B receptor (Cavia porcellus). In words: Inhibition of [125I]BH-CCK- binding to cholecystokinin type B receptor from guinea pig brain membranes.

Regarding `CCCC[C@H](NC(=O)[C@@H](Cc1c[nH]c2ccccc12)NC(=O)CNC(=O)[C@H](CCSC)NC(=O)[C@H](Cc1ccc(OS(=O)(=O)O)cc1)NC(=O)OC(C)(C)C)C(=O)N[C@@H](CC(=O)O)C(=O)OCCc1ccccc1`, the IC50 in experiment [1] amounted to 210 nM. In other words, the sub-micromolar range.

As to `CCCC[C@H](NC(=O)[C@H](Cc1ccc(OS(=O)(=O)O)cc1)NC(=O)OC(C)(C)C)C(=O)NCC(=O)N[C@@H](Cc1c[nH]c2ccccc12)C(=O)N[C@@H](CCCC)C(=O)N[C@@H](CC(=O)O)C(=O)NCCc1ccccc1` (Boc-[sY][Nle]GW[Nle]D-NHPhenethyl), the half-inhibitory concentration (IC50) in experiment [2] was 30 nM; in experiment [1], 13 nM; in experiment [3], 10 nM.

In the case of `CCCC[C@H](NC(=O)[C@H](Cc1ccc(OS(=O)(=O)O)cc1)NC(=O)OC(C)(C)C)C(=O)NCC(=O)N[C@@H](Cc1c[nH]c2ccccc12)C(=O)N[C@@H](CCCC)C(=O)N[C@@H](CC(=O)O)C(=O)OCCc1ccccc1` (Boc-[sY][Nle]GW[Nle]D-OCH2CH2Ph), the figures for the IC50 in experiment [2] and in experiment [1] were 3 nM and 2 nM, respectively.
